Results on eight compounds are retold here after patent publication US20180000085A1, “USE OF PICOLINAMIDE COMPOUNDS WITH FUNGICIDAL ACTIVITY” (DOW AGROSCIENCES LLC, priority 2014, published 2018).

In one assay the test system is Puccinia triticina. The experiment in a line: Wheat brown rust (PUCCRT) disease control on wheat seedlings. Also noted: key to PUCCRT 3DC, HV activity at 100 ppm (% control rating) / PUCCRT disease control, 3DC / PUCCRT 1DP disease control rating, HV activity / PUCCRT 3DC disease control rating, HV activity / PUCCRT 3DC, LV activity at 125.1 g/H (% Control rating) / PUCCRT 1DP, LV activity at 125.1 g/H (% Control rating) / PUCCRT 3DC disease control rating, LV activity at 125.1 g/H / PUCCRT 1DP disease control rating, LV activity at 125.1 g/H / PUCCRT 3DC disease control rating, HV activity at 100 ppm / PUCCRT 1DP disease control rating, HV activity at 100 ppm / HV activity at 100 ppm PUCCRT 3DC (disease control rating) / LV activity at 125.1 g/H PUCCRT 1DP (disease control rating) / LV activity at 125.1 g/H PUCCRT 3DC (disease control rating): A: > 80; B: ≤ 80; C: Not Tested; D: No Activity Observed in the Reported Assay. The class given is in vivo. The conditions noted are these: for PUCCRT 1DP disease control rating, HV activity at 100 ppm / PUCCRT 3DC disease control rating, HV activity at 100 ppm: high volume application; for PUCCRT 1DP disease control rating, HV activity / PUCCRT 3DC disease control rating, HV activity: HV application at 100 ppm; for PUCCRT 1DP disease control rating, HV activity / PUCCRT 3DC disease control rating, HV activity / LV activity at 125.1 g/H PUCCRT 1DP (disease control rating) / LV activity at 125.1 g/H PUCCRT 3DC (disease control rating): wheat brown rust. As to the method:
All fungicides were evaluated using the aforementioned method for their activity vs. all target diseases, unless stated otherwise. Wheat leaf blotch and brown rust activity were also evaluated using track spray applications, in which case the fungicides were formulated as EC formulations, containing 0.1% Trycol 5941 in the spray solutions. Wheat plants (variety Yuma) were grown from seed in a greenhouse in 50% mineral soil/50% soil-less Metro mix until the first leaf was fully emerged, with 7-10 seedlings per pot. These plants were inoculated with an aqueous spore suspension of Zymoseptoria tritici either prior to or after fungicide treatments. After inoculation the plants were kept in 100% relative humidity (one day in a dark dew chamber followed by two to three days in a lighted dew chamber at 20° C.) to permit spores to germinate and infect the leaf. The plants were then transferred to a greenhouse set at 20° C. for disease to develop. When disease symptoms were fully expressed on the 1st leaves of untreated plants, infection levels were assessed on a scale of 0 to 100 percent disease severity. Percent disease control was calculated using the ratio of disease severity on treated plants relative to untreated plants. Example B: Evaluation of Fungicidal Activity: Wheat Brown Rust (Puccinia triticina; Synonym: Puccinia recondita f. sp. Tritici; Bayer Code PUCCRT) Wheat plants (variety Yuma) were grown from seed in a greenhouse in 50% mineral soil/50% soil-less Metro mix until the first leaf was fully emerged, with 7-10 seedlings per pot. These plants were inoculated with an aqueous spore suspension of Puccinia triticina either prior to or after fungicide treatments. […] The plants were then transferred to a greenhouse set at 24° C. for disease to develop. Fungicide formulation, application and disease assessment followed the procedures as described in the Example A.

For another assay, the system named is Zymoseptoria tritici. The experiment in a line: Leaf blotch of wheat (SEPTTR) disease control on wheat seedlings. The conditions noted are these: for SEPTTR 1DP disease control rating, HV activity at 100 ppm / SEPTTR 3DC disease control rating, HV activity at 100 ppm: high volume application; for SEPTTR 1DP disease control rating, HV activity / SEPTTR 3DC disease control rating, HV activity: HV application at 100 ppm; for SEPTTR 1DP disease control rating, HV activity / SEPTTR 3DC disease control rating, HV activity / LV activity at 125.1 g/H SEPTTR 1DP (disease control rating) / LV activity at 125.1 g/H SEPTTR 3DC (disease control rating): wheat leaf blotch. Also noted: key to SEPTTR 1DP, HV activity at 100 ppm (% control rating) / SEPTTR 3DC, HV activity at 100 ppm (% control rating) / SEPTTR disease control, 1DP / SEPTTR disease control, 3DC / SEPTTR 1DP disease control rating, HV activity / SEPTTR 3DC disease control rating, HV activity / SEPTTR 3DC, LV activity at 125.1 g/H (% Control rating) / SEPTTR 1DP, LV activity at 125.1 g/H (% Control rating) / SEPTTR 1DP disease control rating, LV activity at 125.1 g/H / SEPTTR 3DC disease control rating, LV activity at 125.1 g/H / SEPTTR 3DC disease control rating, HV activity at 100 ppm / SEPTTR 1DP disease control rating, HV activity at 100 ppm / HV activity at 100 ppm SEPTTR 3DC (disease control rating) / HV activity at 100 ppm SEPTTR 1DP (disease control rating) / LV activity at 125.1 g/H SEPTTR 1DP (disease control rating) / LV activity at 125.1 g/H SEPTTR 3DC (disease control rating): A: > 80; B: ≤ 80; C: Not Tested; D: No Activity Observed in the Reported Assay. The class given is in vivo. As to the method: All fungicides were evaluated using the aforementioned method for their activity vs. all target diseases, unless stated otherwise. Wheat leaf blotch and brown rust activity were also evaluated using track spray applications, in which case the fungicides were formulated as EC formulations, containing 0.1% Trycol 5941 in the spray solutions. Wheat plants (variety Yuma) were grown from seed in a greenhouse in 50% mineral soil/50% soil-less Metro mix until the first leaf was fully emerged, with 7-10 seedlings per pot. These plants were inoculated with an aqueous spore suspension of Zymoseptoria tritici either prior to or after fungicide treatments. After inoculation the plants were kept in 100% relative humidity (one day in a dark dew chamber followed by two to three days in a lighted dew chamber at 20° C.) to permit spores to germinate and infect the leaf. The plants were then transferred to a greenhouse set at 20° C. for disease to develop. When disease symptoms were fully expressed on the 1st leaves of untreated plants, infection levels were assessed on a scale of 0 to 100 percent disease severity. Percent disease control was calculated using the ratio of disease severity on treated plants relative to untreated plants.

Where [1] appears, read: low volume application, 125.1 g/H, 1 Day Protectant.
Where [2] appears, read: low volume application, 125.1 g/H, 3 Day Curative.
[3] abbreviates: low volume application, 125.1 g/H, 1 day protectant.
Setting [4] is: low volume application, 125.1 g/H, 3 day curative.

On to `COc1ccnc(C(=O)N[C@@H](CC(C)C)C(=O)O[C@@H](C)[C@H](Oc2ccccc2)C(C)C)c1O` [Cmpd 813], for which, in the assay with Puccinia triticina (1 day protectant), the “PUCCRT 1DP disease control rating, HV activity at 100 ppm” value is listed as “B (≤ 80)”. In the assay with Puccinia triticina (3 day curative), the “PUCCRT 3DC disease control rating, HV activity at 100 ppm” value is “D”. In addition, the “SEPTTR 1DP disease control rating, HV activity at 100 ppm” value with Zymoseptoria tritici (1 day protectant) is “D”. In addition, the “SEPTTR 3DC disease control rating, HV activity at 100 ppm” value in the assay on Zymoseptoria tritici (3 day curative) is “B (≤ 80)”.
In the case of `COc1ccnc(C(=O)N[C@@H](C)C(=O)O[C@@H](C)COC(C)(C)C)c1O` [Cmpd 341], in the assay with Puccinia triticina (1 Day Protectant), the “PUCCRT 1DP disease control rating, HV activity” value is “B (≤ 80)”. Moreover, the “PUCCRT 3DC disease control rating, HV activity” value with Puccinia triticina (3 Day Curative) is given as “B (≤ 80)”. Moreover, the “SEPTTR 1DP disease control rating, HV activity” value with Zymoseptoria tritici (1 Day Protectant) is given as “B (≤ 80)”. Besides, the “SEPTTR 3DC disease control rating, HV activity” value with Zymoseptoria tritici (3 Day Curative) is reported as “B (≤ 80)”.
Take `CCCC(OC(=O)C(C)NC(=O)c1nccc(OC)c1OCOC(C)=O)C(Oc1ccccc1)C(C)C` (centres unmarked) [Cmpd 1096]: the “LV activity at 125.1 g/H PUCCRT 1DP (disease control rating)” value with Puccinia triticina (setting [1]) is recorded as “D”. In the assay on Puccinia triticina (setting [2]), the “LV activity at 125.1 g/H PUCCRT 3DC (disease control rating)” value is reported as “D”. For the same compound, in the assay with Zymoseptoria tritici (setting [1]), the “LV activity at 125.1 g/H SEPTTR 1DP (disease control rating)” value is “D”. For the same compound, the “LV activity at 125.1 g/H SEPTTR 3DC (disease control rating)” value in the assay with Zymoseptoria tritici (setting [2]) is recorded as “B (≤ 80)”.
On to `COc1ccnc(C(=O)NC(C)C(=O)OC(C)C(Oc2ccc(F)cc2)C(C)C)c1O` (centres unmarked) [Cmpd 391], for which the “PUCCRT 1DP disease control rating, HV activity” value in the assay with Puccinia triticina (1 Day Protectant) is listed as “A (> 80)”. Moreover, in the assay on Puccinia triticina (3 Day Curative), the “PUCCRT 3DC disease control rating, HV activity” value is “A (> 80)”. For the same compound, in the assay on Zymoseptoria tritici (1 Day Protectant), the “SEPTTR 1DP disease control rating, HV activity” value is on record as “A (> 80)”. The “SEPTTR 3DC disease control rating, HV activity” value in the assay on Zymoseptoria tritici (3 Day Curative) is on record as “A (> 80)”.
Take `COc1ccnc(C(=O)N[C@@H](C)C(=O)O[C@@H](C)[C@H](Oc2ccc(C)cc2Cl)C(C)(C)C)c1O` [Cmpd 1006]: the “PUCCRT 1DP disease control rating, HV activity at 100 ppm” value in the assay on Puccinia triticina (1 day protectant) is listed as “A (> 80)”. Also, in the assay with Puccinia triticina (3 day curative), the “PUCCRT 3DC disease control rating, HV activity at 100 ppm” value was “A (> 80)”. In addition, in the assay on Zymoseptoria tritici (1 day protectant), the “SEPTTR 1DP disease control rating, HV activity at 100 ppm” value is reported as “B (≤ 80)”. Further, the “SEPTTR 3DC disease control rating, HV activity at 100 ppm” value with Zymoseptoria tritici (3 day curative) is reported as “B (≤ 80)”.
`CCC[C@@H](Oc1ccc(C)cc1Cl)[C@H](C)OC(=O)[C@H](C)NC(=O)c1nccc(OC)c1OC(C)=O` [Cmpd 1068]: in the assay on Puccinia triticina (setting [1]), the “LV activity at 125.1 g/H PUCCRT 1DP (disease control rating)” value is “A (> 80)”. For the same compound, the “LV activity at 125.1 g/H PUCCRT 3DC (disease control rating)” value with Puccinia triticina (setting [2]) was “B (≤ 80)”. In addition, in the assay on Zymoseptoria tritici (setting [1]), the “LV activity at 125.1 g/H SEPTTR 1DP (disease control rating)” value is reported as “B (≤ 80)”. Moreover, the “LV activity at 125.1 g/H SEPTTR 3DC (disease control rating)” value in the assay on Zymoseptoria tritici (setting [2]) is listed as “B (≤ 80)”.
In the case of `CCCOCC(C)OC(=O)C(C)NC(=O)c1nccc(OC)c1OCOC(C)=O` (centres unmarked) [Cmpd 522], the “PUCCRT 1DP, LV activity at 125.1 g/H (% Control rating)” value with Puccinia triticina (setting [1]) is given as “D”. Further, the “PUCCRT 3DC, LV activity at 125.1 g/H (% Control rating)” value in the assay with Puccinia triticina (setting [2]) is reported as “D”. Moreover, the “SEPTTR 1DP, LV activity at 125.1 g/H (% Control rating)” value with Zymoseptoria tritici (setting [1]) is reported as “B (≤ 80)”. In the assay on Zymoseptoria tritici (setting [2]), the “SEPTTR 3DC, LV activity at 125.1 g/H (% Control rating)” value was “B (≤ 80)”.
As for `CCC(CC)[C@H](Oc1cc(F)ccc1F)[C@H](C)OC(=O)[C@H](C)NC(=O)c1nccc(OC)c1OCOC(C)=O` [Cmpd 671], the “PUCCRT 1DP disease control rating, LV activity at 125.1 g/H” value in the assay with Puccinia triticina (setting [3]) is listed as “A (> 80)”. The “PUCCRT 3DC disease control rating, LV activity at 125.1 g/H” value in the assay with Puccinia triticina (setting [4]) is given as “A (> 80)”. For the same compound, in the assay with Zymoseptoria tritici (setting [3]), the “SEPTTR 1DP disease control rating, LV activity at 125.1 g/H” value is “D”. In addition, the “SEPTTR 3DC disease control rating, LV activity at 125.1 g/H” value in the assay on Zymoseptoria tritici (setting [4]) was “B (≤ 80)”.
